# Where two headings read alike, the source gives them in different places.
# Legend:
# various cell lines = settings: cited from earlier work
# [1] = Log P (1-octanol/water partition, gamma counting); format: physicochemical; settings: 1-octanol/H2O, mean ± SD, n = 3 (free 52Mn n = 2)
# Protocol: An aliquot (500 μL) of each layer was then added to an Eppendorf. An aliquot (20 μL) of the [^52Mn]Mn-porphyrin reaction mixture was then added to the two layers and vortexed for 5 min. After mixing, the suspension was […] briefly for 10 s to settle the layers, and 200 μL of each layer was extracted. The octanol and H2O layers were then gamma counted (Wallac CompuGamma) and the Log P was calculated as below: LogP=LogActivityCPMin octanol layer/ActivityCPMinwaterlayer
# [2] = Solubility in aqueous and organic solvents; format: physicochemical
# [3] = parameters: method as in PMID 3821476; settings: up to 9 days, UV-spectroscopy; cited from earlier work
smiles,measurement,setting,value
[89Zr+4].[O-]c1cccc2cccnc12.[O-]c1cccc2cccnc12.[O-]c1cccc2cccnc12.[O-]c1cccc2cccnc12 [[^89Zr]Zr-oxine],cellular retention,various cell lines; later timepoints (5–7 days),at least 30%
same,cellular retention,"various cell lines; various cell lines, after 24 h",> 65%
"[Cl][52Mn][Cl] [Buffered ^52Mn, [^52Mn]MnCl2]",Log P value,[1],−2.4 ± 0.7
CNS(=O)(=O)c1ccc(F)c(-c2c3nc(c(-c4c(F)ccc(S(=O)(=O)NC)c4F)c4ccc([nH]4)c(-c4c(F)ccc(S(=O)(=O)NC)c4F)c4nc(c(-c5c(F)ccc(S(=O)(=O)NC)c5F)c5ccc2[nH]5)C=C4)C=C3)c1F [porphyrin 2],solubility,[2],favourable solubility in aqueous and organic solvents
same,solubility,[2]; listed as Porphyrin 2,favourable solubility in both aqueous and organic solvents
O=S(=O)([O-])c1ccc(-c2c3nc(c(-c4ccc(S(=O)(=O)[O-])cc4)c4ccc([n-]4)c(-c4ccc(S(=O)(=O)[O-])cc4)c4ccc([n-]4)c(-c4ccc(S(=O)(=O)[O-])cc4)c4nc2C=C4)C=C3)cc1.[Mn+3] [Mn-(5)],stability in human plasma,[3],stable

# From PMC10236072, “Microwave-assisted synthesis of [^52Mn]Mn-porphyrins: Applications in cell and liposome radiolabelling” (Nuclear Medicine and Biology, 2022)
